This is an account of results in US9062118B2 (priority 2006, dated 2015).

Bridge positions count the residues as written; N and C are the ends. Peptide text beside a SMILES is read from it.

This assay addresses adult mouse muscle nAChR subtype (α1β1εδ) (Mus musculus, UniProt P02716+P04756+P20782). In words: cell-based.

adult mouse muscle nAChR subtype (α1β1εδ), sequence (P02716 whole entry, looked up): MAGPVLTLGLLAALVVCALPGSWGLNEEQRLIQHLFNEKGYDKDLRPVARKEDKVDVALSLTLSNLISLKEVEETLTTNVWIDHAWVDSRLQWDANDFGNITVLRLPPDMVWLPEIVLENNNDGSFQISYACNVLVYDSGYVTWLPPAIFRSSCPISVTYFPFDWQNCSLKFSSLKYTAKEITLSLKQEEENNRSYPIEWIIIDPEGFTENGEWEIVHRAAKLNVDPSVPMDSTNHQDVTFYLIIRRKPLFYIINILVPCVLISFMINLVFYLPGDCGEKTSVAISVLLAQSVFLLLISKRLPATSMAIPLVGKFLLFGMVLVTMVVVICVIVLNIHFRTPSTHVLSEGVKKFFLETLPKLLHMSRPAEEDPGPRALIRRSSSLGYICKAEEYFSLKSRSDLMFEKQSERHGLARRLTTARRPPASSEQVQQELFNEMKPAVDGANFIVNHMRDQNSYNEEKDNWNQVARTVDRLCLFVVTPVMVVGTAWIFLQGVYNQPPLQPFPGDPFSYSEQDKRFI
adult mouse muscle nAChR subtype (α1β1εδ), sequence (P04756 whole entry, looked up): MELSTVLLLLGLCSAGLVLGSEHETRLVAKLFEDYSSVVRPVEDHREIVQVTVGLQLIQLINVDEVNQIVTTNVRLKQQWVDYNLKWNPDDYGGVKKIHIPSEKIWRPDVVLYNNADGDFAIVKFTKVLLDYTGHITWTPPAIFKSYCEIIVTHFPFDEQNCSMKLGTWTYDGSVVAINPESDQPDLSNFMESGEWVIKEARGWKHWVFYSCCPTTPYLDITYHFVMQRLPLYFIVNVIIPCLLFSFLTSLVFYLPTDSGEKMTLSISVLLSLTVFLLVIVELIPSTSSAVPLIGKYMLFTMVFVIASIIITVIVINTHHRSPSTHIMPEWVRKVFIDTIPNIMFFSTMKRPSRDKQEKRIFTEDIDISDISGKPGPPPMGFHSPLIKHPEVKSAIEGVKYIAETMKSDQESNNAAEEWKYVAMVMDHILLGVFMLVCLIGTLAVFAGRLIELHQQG
adult mouse muscle nAChR subtype (α1β1εδ), sequence (P20782 whole entry, looked up): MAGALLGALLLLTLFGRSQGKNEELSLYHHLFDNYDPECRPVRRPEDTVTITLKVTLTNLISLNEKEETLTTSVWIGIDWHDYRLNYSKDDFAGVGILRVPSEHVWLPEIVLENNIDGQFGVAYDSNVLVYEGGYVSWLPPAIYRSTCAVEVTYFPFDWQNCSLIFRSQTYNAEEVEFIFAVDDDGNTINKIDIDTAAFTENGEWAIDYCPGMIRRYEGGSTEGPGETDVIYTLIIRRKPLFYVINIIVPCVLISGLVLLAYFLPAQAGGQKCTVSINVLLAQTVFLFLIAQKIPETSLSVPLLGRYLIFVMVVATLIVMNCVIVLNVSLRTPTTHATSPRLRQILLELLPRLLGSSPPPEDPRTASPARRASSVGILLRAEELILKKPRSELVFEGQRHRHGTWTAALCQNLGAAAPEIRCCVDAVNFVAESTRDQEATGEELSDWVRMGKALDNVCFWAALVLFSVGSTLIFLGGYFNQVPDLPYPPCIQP

The term IC50 denotes the point on the concentration scale where inhibition reaches its midpoint. A low value points to greater potency in that assay. `CC[C@H](C)[C@@H]1NC(=O)CNC(=O)[C@H](C)NC(=O)[C@H](CCCNC(=N)N)NC(=O)[C@@H]2CSSC[C@@H](C(=O)N[C@@H](CCCNC(=N)N)C(N)=O)NC(=O)[C@H](Cc3c[nH]cn3)NC(=O)[C@H](CSSC[C@H](NC(=O)[C@@H](NC(=O)[C@H](CCCNC(=N)N)NC(=O)[C@@H]3CCCN3C(=O)[C@H](CCCNC(=N)N)NC(=O)[C@@H]3CCCN3C(=O)[C@@H](N)Cc3ccccc3)[C@@H](C)CC)C(=O)N[C@@H](CC(N)=O)C(=O)N[C@@H](CC(C)C)C(=O)N[C@@H](C)C(=O)N2)NC(=O)[C@H](Cc2ccccc2)NC(=O)[C@@H]2CCCN2C(=O)[C@H](Cc2ccc(O)cc2)NC(=O)[C@H](CCCCN)NC(=O)[C@H](Cc2c[nH]cn2)NC(=O)CNC1=O` [pl14a] (H-FPRPRICNLACRAGIGHKYPFCHCR-NH2; disulfide 7-22, 11-24): the 50% inhibitory concentration (IC50) was 507 nM.
